Assay results reported in patent US9394549B2, “Method for producing useful chemical substance from terephthalic acid potassium salt” (GENARIS, INC., priority 2012, dated 2016).

Tests used:
[1] = Solubility of terephthalic acid salts in 1-butanol; assay type: physicochemical; conditions: organic solvent or mixture, same manner as Example 1
Text: As just seen above, it was found out that, unlike the dissolution in ethylene glycol, the dissolution in 1-butanol was very poor.

[2] = test system: recombinant Escherichia coli strain M7032 (pUXPEaLT_tphA2A3A1_tpaK); experiment: Production of TPA-DHD from terephthalic acid salt in jar fermentor culture; assay type: cell-based; conditions: for Ratio of the capacity in production (TPA-DHD): disodium terephthalate as 100%
Method: Based on the results of Example 1, on the basis of terephthalic acid, potassium hydroxide, sodium hydroxide, 28% ammonium solution and distilled water, 0.6 M dipotassium terephthalate aqueous solution, 0.6 M 1-potassium 4-sodium terephthalate aqueous solution, 0.6 M 1-potassium 4-ammonium terephthalate aqueous solution, and 0.6 M disodium terephthalate aqueous solution were prepared 500 mL each. 30 ml of these terephthalic acid salt solutions and 7 g of glucose were mixed to prepare a glucose and substrate mixed solution.
A TPA-DHD production plasmid pUXPEaLT_tphA2A3A1_tpaK constructed in Reference Example 3 was introduced into Escherichia coli M7032 strain (obtained from CGSC of Yale University) by a transformation method to obtain a recombinant Escherichia coli strain M7032 (pUXPEaLT_tphA2A3A1_tpaK).
This transformant was cultured in 1 ml of LB liquid medium (10 g/l tryptone (manufactured by Difco), 5 g/l dried yeast extract (manufactured by Difco), 10 g/l sodium chloride) containing ampicillin at a final concentration of 100 mg/1 overnight. Next, merely 1% of this overnight culture was inoculated in 10 ml of F6.6W/P100/G2 medium containing ampicillin at a final concentration of 100 mg/I and cultured at 30° C. for 24 hours.
Next, in order to carry out main culture based on this preculture, 65 ml of F6.6W/P10/G1 medium which is a main culture medium was put in an octuple mini jar fermentor (manufactured by ABLE Corporation) and adjusted to 30.2° C.±0.2 and pH 6.9±0.1.
The aeration condition of the jar fermentor culture was adjusted to 1 vvm and the adjustment of the pH of the culture was carried out using an ammonium solution and sulfuric acid. Further, dissolved oxygen in the culture solution was regulated as a saturated oxygen concentration of 100% and controlled with the revolution of stirring blade such that the dissolved oxygen is maintained at 15%, which dissolved oxygen decreasing as bacterial cells grow.
In a main culture medium, 0.1% of preculture was inoculated and cultured in the above condition. When the bacterial cell turbidity reached about 7 at an absorbance of 600 nm, an inducer, m-toluic acid was added such that the final concentration thereof was 1 mM to express a terephthalate 1,2-dioxygenase protein, terephthalate 1,2-dioxygenase reductase protein, and terephthalic acid transporter protein. The glucose concentration was measured with time. When the glucose concentration reached 0, the glucose and substrate mixed solution was administered.
Each of the samples was subjected to analysis in conditions shown in Table 1 by an LC-TOF type mass spectrometer (Waters Corporation, LCT Premier XE). Identification of terephthalic acid was carried out with a combination of retention time of high performance liquid chromatography and an accurate mass value from the mass spectrometer, comparing to a standard sample of terephthalic acid. Among substances appeared as terephthalic acid decreased, TPA-DHD was identified on the basis of a predicted accurate mass value of TPA-DHD. Further, quantification of TPA-DHD was carried out on the basis of a calibration curve prepared from an amount of terephthalic acid decreased and an increase in the peak area of TPA-DHD.
First, 0.6 M dipotassium terephthalate aqueous solution and 0.6 M disodium terephthalate aqueous solution, both of which were prepared in Example 2, were mixed at a ratio of 0:100, 20:80, 25:75, 30:70, 35:65, and 50:50 to prepare each aqueous solution of the terephthalic acid salts. These terephthalic acid salt solutions 30 ml and glucose 7 g were mixed to obtain glucose and substrate mixed solutions.
Using these glucose and substrate mixed solutions, the capacity of recombinant Escherichia coli strain M7032 (pUXPEaLT_tphA2A3A1_tpaK) in production of TPA-DHD was examined by the same method as the method of Example 2. […]

[3] = test system: gallic acid-producing Escherichia coli strain M7032 (pUXPEaLT_HFM145_tphA2A3BA1_tpaK); experiment: Production of gallic acid from terephthalic acid salt in jar fermentor culture; assay type: cell-based; conditions: for Gallic acid: 0.6 M salt solution as raw material, 48 hours after the start of the main culture; for Ratio of the capacity in production (gallic acid): 48 hours, disodium terephthalate as 100%
Method: A gallic acid plasmid pUXPEaLT_HFM145_tphA2A3BA1_tpaK constructed in Reference Example 2 was introduced into Escherichia coli M7032 strain by a transformation method to obtain a gallic acid-producing Escherichia coli strain M7032 (pUXPEaLT_HFM145_tphA2A3BA1_tpaK). Subsequently, in the same manner as described in Example 2, the preculture of this gallic acid-producing bacterium was prepared and then merely 2% of this preculture was inoculated in a main culture medium to carry out main culture in the above condition. When the bacterial cell turbidity reached about 7 at an absorbance of 600 nm, an inducer m-toluic acid was added such that the final concentration thereof came to 1 mM to express terephthalate 1,2-dioxygenase protein, terephthalate 1,2-dioxygenase reductase protein, terephthalate dihydrodiol dehydrogenase protein, terephthalic acid transporter protein and improved para-hydroxybenzoate hydroxylase. The glucose concentration was measured with time. When the glucose concentration reached 0, the glucose and substrate mixed solution was administered.
Sampling was carried out 48 hours after the start of the main culture. Each of the samples was subjected to analysis by an LC-TOF type mass spectrometer (Waters Corporation, LCT Premier XE). Identification of gallic acid and protocatechuic acid was carried out with a combination of retention time of high performance liquid chromatography and an accurate mass value from the mass spectrometer, comparing to a standard sample of terephthalic acid and gallic acid.

[4] = 0.6 M salt solution as raw material, 48 hours after the start of the main culture
[5] = salt from PET in 1-butanol, 35 hours
[6] = salt obtained by depolymerization of PET in 1-butanol (Example 9), 0.6M, 35 hours
[7] = salt obtained by depolymerization of PTT (Example 7), 0.6M, 48 hours

Structure (SMILES)	solubility [1] [µM]	TPA-DHD [2, 4] [g/L]	Ratio of the capacity in production (TPA-DHD) ([2]; 48 hours) [%]	Ratio of the capacity in production (TPA-DHD) [2, 5] [%]	Ratio of the capacity in production (TPA-DHD) ([2]; salt from PTT, 48 hours) [%]	TPA-DHD [2, 6] [g/L]	TPA-DHD [2, 7] [g/L]	Gallic acid [3] [g/L]	Ratio of the capacity in production (gallic acid) [3] [%]
O=C([O-])c1ccc(C(=O)[O-])cc1.[Na+].[Na+] [Disodium terephthalate, disodium terephthalate, reference compound]	1900	9.7	100	100	100	12.8	12.8	7.6	100
O=C([O-])c1ccc(C(=O)[O-])cc1.[K+].[K+] [Dipotassium terephthalate, dipotassium terephthalate]	200	11.3	116	136	138	17.4	17.7	8.6	113
O=C([O-])c1ccc(C(=O)[O-])cc1.[K+].[Na+] [1-potassium 4-sodium terephthalate]		10.7	110	116	112	14.8	14.3	8.4	111
N.O=C([O-])c1ccc(C(=O)O)cc1.[K+] [1-potassium 4-ammonium terephthalate]		12.2	126					8.5	112
